Data taken from patent US5939424A, “Compounds for treating disorders of lipid metabolism and their preparation” (Hoechst Aktiengesellschaft, priority 1996, dated 1999).
Where a name gives a salt, the structure may show the parent alone.

What follows are compounds tested on LDL receptor mRNA (assay: LDL receptor mRNA levels in rat livers (Northern blot, β-actin as internal standard)). Settings: rat liver, 30 mg/kg, 6 hours after administration; untreated control = 100%.
Assay type: in vivo
Description: To test the ability of the inventive compounds to lower plasma lipid levels, the stimulation of LDL receptor mRNA production was chosen as a surrogate. Thus, in rat livers, within a few hours the LDL receptor mRNA levels are increased by the compounds of the formula I (Table I). The stimulation is in the range from 170 to 350% of the controls (control=100%).
The preparation of the mRNA was carried out according to the method of Chomczynski, P. and Sacchi, N., Anal. Biochem. 162, 156-159 (1987). In organs (such as, for example, liver), the deep-frozen tissue was homogenized on dry ice beforehand in a mortar and the mRNA was further enriched by means of Oligo dT according to standard methods (cf. Sambrook, J., Fritsch, E. F. and Maniatis, T., Molecular Cloning, second Edition, Cold Spring Harbor (1989); in this collection of methods, there are also descriptions of all further relevant molecular biology standard methods used here). Five to […] of the dissolved mRNA thus obtained were denatured according to standard methods and separated on 1% horizontal agarose gels. The mRNA was transferred to Hybond N membranes (Amersham) by means of capillary blot. The specific hybridization probe used was a partial LDL receptor cDNA clone and the internal standard a plasmid which contained a β-actin gene. Both plasmids were labeled by means of a random primer kit from Amersham up to a specific activity of 5×10^9 cpm/mg. Prehybridization, hybridization and washing of the filters were carried out by standard methods. The filters were then exposed at -70° C. on Cronex 4 films (Dupont) overnight up to 14 days in the presence of an intensifying screen and the hybridization signals were quantified using a commercial laser densitometer by means of the film-blackening intensity. The quotient of the intensity of the LDL receptor band and of the actin band was then determined as an internal standard to correct yield variations.
Liver tissue was removed and shock-frozen in liquid nitrogen. The mRNA was then isolated as described, and the relative LDL receptor mRNA levels were determined by means of the Northern blot technique. The mRNA levels of untreated control animals were set at 100%, and the stimulation of the LDL receptor mRNA in percent of the control was calculated.

Compared with CC1(C)CN(c2ncc(C(=O)Nc3cccc(SC(F)(F)F)c3)c(N)n2)C(=O)N1 [Example 22, 4-Amino-2-(4,4-dimethylimidazolidin-2-on-1-yl)-5-[N-(3-trifluorothiomethyl-phenyl)]pyrimidinecarboxamide-hydrochloride], CC1(C)CN(c2ncc(C(=O)Nc3cccc(OC(F)(F)F)c3)c(N)n2)C(=O)N1 [Example 2, 4-Amino-2-(4,4-dimethylimidazolidin-2-on-1-yl)-5-(3-trifluoromethoxyphenylpyrimidine)carboxamide] is higher in “LDL receptor mRNA (stimulation in percent of the control)” value: 235% for the first, 250% for the second.

Compared with CC1(C)CN(c2ncc(C(=O)N(CC(F)(F)F)c3cccc(OC(F)(F)F)c3)c(N)n2)C(=O)N1 [Example 4, 4-Amino-2-(4,4-dimethylimidazolidin-2-on-1-yl)-5-[N-(2,2,2-trifluoroethyl)-N-(3-trifluoromethoxyphenyl)]-pyrimidinecarboxamide], CCN(C(=O)c1cnc(N2CC(C)(C)NC2=O)nc1N)c1cccc(OC(F)(F)F)c1 [Example 3, 4-Amino-2-(4,4-dimethyl-2-oxo-1-imidazolidin-2-on-1-yl)-5-[N-ethyl-N-(3-trifluoromethoxy)phenyl]pyrimidinecarboxamide hydrochloride] is higher in “LDL receptor mRNA (stimulation in percent of the control)” value: 230% for the first, 235% for the second.

Going from CC1(C)CN(c2ncc(C(=O)Nc3ccc4c(c3)OC(F)(F)O4)c(N)n2)C(=O)N1 [Example 14, 4-Amino-2-(4,4-dimethylimidazolidin-2-on-1-yl)-5-[N-(2,2-difluorobenzo-1,3-dioxol-5-yl)]pyrimidinecarboxamide-hydrochloride] to CC1(C)CN(c2ncc(C(=O)Nc3ccc4c(c3)OC(F)(F)C(F)(F)O4)c(N)n2)C(=O)N1 [Example 15, 4-Amino-2-(4,4-dimethylimidazolidin-2-on-1-yi)-5-[N-(2,2,3,3-tetrafluorobenzo-1,4-dioxan-6-yl)]-pyrimidinecarboxamide hydrochloride], the “LDL receptor mRNA (stimulation in percent of the control)” value falls from 250% to 242%.
